This note sets out measurements from patent US10251394B2, “Molecules having pesticidal utility, and intermediates, compositions, and processes, related thereto” (Dow AgroSciences LLC, priority 2016, dated 2019).

Format in all cases: in vivo
Assay [1] has as its system Yellow Fever Mosquito (Aedes aegypti). Kind of assay: Bioassay on Yellow Fever Mosquito (YFM) larvae, 96-well plate. Particulars: Table ABC. The method, then: Example C: Bioassays on Yellow Fever Mosquito (Aedes Aegypti, AEDSAE) (“YFM”)
Certain molecules disclosed in this document were tested against YFM using procedures described in the following paragraph. In the reporting of the results, the “GPA & YFM Rating Table” was used (See Table Section).
Master plates containing 400 μg of a molecule dissolved in 100 μL of dimethyl sulfoxide (DMSO) (equivalent to a 4000 ppm solution) are used. A master plate of assembled molecules contains 15 μL per well. To this plate, 135 μL of a 90:10 water:acetone mixture is added to each well. A robot (Biomek® NXP Laboratory Automation Workstation) is programmed to dispense 15 μL aspirations from the master plate into an empty 96-well shallow plate (“daughter” plate). There are 6 reps (“daughter” plates) created per master. The created daughter plates are then immediately infested with YFM larvae.
The day before plates are to be treated, mosquito eggs are placed in Millipore water containing liver powder to begin hatching (4 g. into 400 mL). After the daughter plates are created using the robot, they are infested with 220 μL of the liver powder/larval mosquito mixture (about 1 day-old larvae). After plates are infested with mosquito larvae, a non-evaporative lid is used to cover the plate to reduce drying. Plates are held at room temperature for 3 days prior to grading. After 3 days, each well is observed and scored based on mortality. The results are indicated in the table entitled “Table ABC: Biological Results” (See Table Section).

For assay [2], the system named is Beet Armyworm (Spodoptera exigua). Kind of assay: Bioassay on Beet Armyworm (BAW), 128-well diet tray assay. The settings on record: Beet Armyworm, Table ABC, read-out: BAW rating. The method, boiled down: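 Second-instar larvae (one to five per well) placed on artificial diet surface-treated with 50 μg/cm^2 test molecule in 90:10 acetone-water, dried, eight wells per molecule. Held at 25° C, 14:10 light-dark, five to seven days; percent mortality recorded per well and averaged across the eight wells.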

The test system of assay [3] is Cabbage Looper (Trichoplusia ni). Kind of assay: Bioassay on Cabbage Looper (CL), 128-well diet tray assay. The settings on record: Cabbage Looper, Table ABC, read-out: CL rating. The method, boiled down:
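Second-instar larvae, one to five per well, placed on artificial diet surface-treated with 50 μg/cm^2 compound in acetone-water, eight wells per compound. Held 5-7 days at 25° C, 14:10 light-dark; percent mortality per well averaged across wells.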

With `C[C@@H](NC(=O)c1ccc(/C(F)=C/C(c2cc(Br)cc(Br)c2)C(F)(F)F)cc1C(F)(F)F)C(=O)NCC(F)(F)F` (stereo partly drawn) [F33, 4-((Z)-3-(3,5-Dibromophenyl)-1,4,4,4-tetrafluorobut-1-en-1-yl)-N—((R)-1-oxo-1-((2,2,2-trifluoroethyl)amino)propan-2-yl)-2-(trifluoromethyl)benzamide], the YFM rating entry in assay [1] is reported as “A (80-100)”. The pest or weed control at 50 µg/cm2 in assay [2] and in assay [3] was 50 to 100% throughout.

As for `O=C(NC1(C(=O)NCC(F)(F)F)CC1)c1ccc(/C(F)=C/C(c2cc(Br)cc(Br)c2)C(F)(F)F)cc1C(F)(F)F` (centres unmarked) [F34, (Z)-4-(3-(3,5-dibromophenyl)-1,4,4,4-tetrafluorobut-1-en-1-yl)-N-(1-((2,2,2-trifluoroethyl)carbamoyl)cyclopropyl)-2-(trifluoromethyl)benzamide], in assay [1], the YFM rating entry is “A (80-100)”. The pest or weed control at 50 µg/cm2 in assay [2] and in assay [3] was 50 to 100% in each case.

With `O=C(CNC(=O)c1ccc(/C(F)=C/C(c2cc(Br)cc(Br)c2)C(F)(F)F)cc1C(F)(F)F)NCC(F)(F)F` (centres unmarked) [F35, (Z)-4-(3-(3,5-Dibromophenyl)-1,4,4,4-tetrafluorobut-1-en-1-yl)-N-(2-oxo-2-((2,2,2-trifluoroethyl)amino)ethyl)-2-(trifluoromethyl)benzamide], the YFM rating entry in assay [1] is “A (80-100)”. The pest or weed control at 50 µg/cm2 in assay [2] and in assay [3] was 50 to 100% in each case.

For `C[C@@H](NC(=O)c1ccc(/C(F)=C/C(c2cc(Cl)c(F)c(Cl)c2)C(F)(F)F)cc1C(F)(F)F)C(=O)NCC(F)(F)F` (stereo partly drawn) [F36, 4-((Z)-3-(3,5-Dichloro-4-fluorophenyl)-1,4,4,4-tetrafluorobut-1-en-1-yl)-N—((R)-1-oxo-1-((2,2,2-trifluoroethyl)amino)propan-2-yl)-2-(trifluoromethyl)benzamide], the YFM rating entry in assay [1] is “A (80-100)”. Besides, the pest or weed control at 50 µg/cm2 in assay [2] and in assay [3] was 50 to 100% each time.

In the case of `O=C(NC1(C(=O)NCC(F)(F)F)CC1)c1ccc(/C(F)=C/C(c2cc(Cl)c(F)c(Cl)c2)C(F)(F)F)cc1C(F)(F)F` (centres unmarked) [F37, (Z)-4-(3-(3,5-Dichloro-4-fluorophenyl)-1,4,4,4-tetrafluorobut-1-en-1-yl)-N-(1-((2,2,2-trifluoroethyl)carbamoyl)cyclopropyl)-2-(trifluoromethyl)benzamide], in assay [1], the YFM rating entry is reported as “A (80-100)”. Moreover, the pest or weed control at 50 µg/cm2 in assay [2] and in assay [3] was 50 to 100% each time.

With `O=C(CNC(=O)c1ccc(/C(F)=C/C(c2cc(Cl)c(F)c(Cl)c2)C(F)(F)F)cc1C(F)(F)F)NCC(F)(F)F` (centres unmarked) [F38, (Z)-4-(3-(3,5-Dichloro-4-fluorophenyl)-1,4,4,4-tetrafluorobut-1-en-1-yl)-N-(2-oxo-2-((2,2,2-trifluoroethyl)amino)ethyl)-2-(trifluoromethyl)benzamide], the YFM rating entry in assay [1] is “A (80-100)”. Also, the pest or weed control at 50 µg/cm2 in assay [2] and in assay [3] was 50 to 100% throughout.

As for `O=C(NC1(C(=O)NCC(F)(F)F)CC1)c1ccc(/C(F)=C/C(c2cc(Cl)cc(Cl)c2)C(F)(F)F)cc1C(F)(F)F` (centres unmarked) [F39, (Z)-4-(3-(3,5-Dichlorophenyl)-1,4,4,4-tetrafluorobut-1-en-1-yl)-N-(1-((2,2,2-trifluoroethyl)carbamoyl)cyclopropyl)-2-(trifluoromethyl)benzamide], the YFM rating entry in assay [1] is recorded as “A (80-100)”. Besides, the pest or weed control at 50 µg/cm2 in assay [2] and in assay [3] was 50 to 100% in each case.

Take `O=C(CNC(=O)c1ccc(/C(F)=C/C(c2cc(Cl)cc(Cl)c2)C(F)(F)F)cc1C(F)(F)F)NCC(F)(F)F` (centres unmarked) [F40, (Z)-4-(3-(3,5-Dichlorophenyl)-1,4,4,4-tetrafluorobut-1-en-1-yl)-N-(2-oxo-2-((2,2,2-trifluoroethyl)amino)ethyl)-2-(trifluoromethyl)benzamide]: the YFM rating result in assay [1] is given as “A (80-100)”. Further, the pest or weed control at 50 µg/cm2 in assay [2] and in assay [3] was 50 to 100% throughout.

In the case of `O=C(NC1(C(=O)NCC(F)(F)F)CC1)c1ccc(/C(F)=C/C(c2ccc(Cl)c(Cl)c2)C(F)(F)F)cc1C(F)(F)F` (centres unmarked) [F41, (Z)-4-(3-(3,4-Dichlorophenyl)-1,4,4,4-tetrafluorobut-1-en-1-yl)-N-(1-((2,2,2-trifluoroethyl)carbamoyl)cyclopropyl)-2-(trifluoromethyl)benzamide], the YFM rating result in assay [1] is “A (80-100)”. Besides, the pest or weed control at 50 µg/cm2 in assay [2] and in assay [3] was 50 to 100% each time.

For the compound `C[C@@H](NC(=O)c1ccc(/C(F)=C/C(c2ccc(Cl)c(Cl)c2)C(F)(F)F)cc1C(F)(F)F)C(=O)NCC(F)(F)F` (stereo partly drawn) [F42, 4-((Z)-3-(3,4-Dichlorophenyl)-1,4,4,4-tetrafluorobut-1-en-1-yl)-N—((R)-1-oxo-1-((2,2,2-trifluoroethyl)amino)propan-2-yl)-2-(trifluoromethyl)benzamide], the YFM rating result in assay [1] is reported as “A (80-100)”. For the same compound, the pest or weed control at 50 µg/cm2 in assay [2] and in assay [3] was 50 to 100% each time.

As for `O=C(CNC(=O)c1ccc(/C(F)=C/C(c2ccc(Cl)c(Cl)c2)C(F)(F)F)cc1C(F)(F)F)NCC(F)(F)F` (centres unmarked) [F43, (Z)-4-(3-(3,4-Dichlorophenyl)-1,4,4,4-tetrafluorobut-1-en-1-yl)-N-(2-oxo-2-((2,2,2-trifluoroethyl)amino)ethyl)-2-(trifluoromethyl)benzamide], in assay [1], the YFM rating entry is “A (80-100)”. The pest or weed control at 50 µg/cm2 in assay [2] and in assay [3] was 50 to 100% each time.

Take `C[C@@H](NC(=O)c1ccc(/C(F)=C/C(c2cc(Br)c(Cl)c(Br)c2)C(F)(F)F)cc1C(F)(F)F)C(=O)NCC(F)(F)F` (stereo partly drawn) [F44, 4-((Z)-3-(3,5-Dibromo-4-chlorophenyl)-1,4,4,4-tetrafluorobut-1-en-1-yl)-N—((R)-1-oxo-1-((2,2,2-trifluoroethyl)amino)propan-2-yl)-2-(trifluoromethyl)benzamide]: the YFM rating entry in assay [1] is recorded as “A (80-100)”. For the same compound, the pest or weed control at 50 µg/cm2 in assay [2] and in assay [3] was 50 to 100% in each case.

For `O=C(NC1(C(=O)NCC(F)(F)F)CC1)c1ccc(/C(F)=C/C(c2cc(Br)c(Cl)c(Br)c2)C(F)(F)F)cc1C(F)(F)F` (centres unmarked) [F45, (Z)-4-(3-(3,5-Dibromo-4-chlorophenyl)-1,4,4,4-tetrafluorobut-1-en-1-yl)-N-(1-((2,2,2-trifluoroethyl)carbamoyl)cyclopropyl)-2-(trifluoromethyl)benzamide], the YFM rating result in assay [1] is reported as “A (80-100)”. The pest or weed control at 50 µg/cm2 in assay [2] and in assay [3] was 50 to 100% in each case.

With `O=C(CNC(=O)c1ccc(/C(F)=C/C(c2cc(Br)c(Cl)c(Br)c2)C(F)(F)F)cc1C(F)(F)F)NCC(F)(F)F` (centres unmarked) [F46, (Z)-4-(3-(3,5-Dibromo-4-chlorophenyl)-1,4,4,4-tetrafluorobut-1-en-1-yl)-N-(2-oxo-2-((2,2,2-trifluoroethyl)amino)ethyl)-2-(trifluoromethyl)benzamide], the YFM rating result in assay [1] is reported as “A (80-100)”. Moreover, the pest or weed control at 50 µg/cm2 in assay [2] and in assay [3] was 50 to 100% in each case.

As to `C=Cc1c(Cl)cc(C(/C=C(\F)c2ccc(C(=O)N[C@H](C)C(=O)NCC(F)(F)F)c(C(F)(F)F)c2)C(F)(F)F)cc1Cl` (stereo partly drawn) [F52, 4-((Z)-3-(3,5-Dichloro-4-vinylphenyl)-1,4,4,4-tetrafluorobut-1-en-1-yl)-N—((R)-1-oxo-1-((2,2,2-trifluoroethyl)amino)propan-2-yl)-2-(trifluoromethyl)benzamide], the YFM rating result in assay [1] is listed as “A (80-100)”. Moreover, the pest or weed control at 50 µg/cm2 in assay [2] and in assay [3] was 50 to 100% each time.

Consider `CN(CC(F)(F)F)C(=O)C1(NC(=O)c2ccc(/C(F)=C/C(c3ccc(Cl)c(Cl)c3)C(F)(F)F)cc2C(F)(F)F)CC1` (centres unmarked) [F135, (Z)-4-(3-(3,4-Dichlorophenyl)-1,4,4,4-tetrafluorobut-1-en-1-yl)-N-(1-(methyl(2,2,2-trifluoroethyl)carbamoyl)cyclopropyl)-2-(trifluoromethyl)benzamide], for which the YFM rating entry in assay [1] is reported as “B (More than 0-Less than 80)”.

With `C[C@@H](NC(=O)c1ccc(/C(F)=C/C(c2cc(Cl)cc(Cl)c2)C(F)(F)F)cc1C(F)(F)F)C(=O)NCC(F)(F)F` (stereo partly drawn) [F144, 4-((Z)-3-(3,5-Dichlorophenyl)-1,4,4,4-tetrafluorobut-1-en-1-yl)-N—((R)-1-oxo-1-((2,2,2-trifluoroethyl)amino)propan-2-yl)-2-(trifluoromethyl)benzamide], in assay [1], the YFM rating entry is “A (80-100)”.
